Laboratory results: patent publication US20230019491A1, “PYRIMIDINE TBK/IKKe INHIBITOR COMPOUNDS AND USES THEREOF” (Merck Patent GmbH, priority 2017, published 2023)

How the values were obtained:
[1] = molecular target: T1, TBK1 (Homo sapiens, UniProt Q9UHD2); assay: TBK biochemical assay; details: 10 point 1:4 dose response, 30 uM top concentration, 90 min at 25° C., LabChip EZ Reader II; read-out: TBK1_IC50
T1 sequence (Q9UHD2 1-729): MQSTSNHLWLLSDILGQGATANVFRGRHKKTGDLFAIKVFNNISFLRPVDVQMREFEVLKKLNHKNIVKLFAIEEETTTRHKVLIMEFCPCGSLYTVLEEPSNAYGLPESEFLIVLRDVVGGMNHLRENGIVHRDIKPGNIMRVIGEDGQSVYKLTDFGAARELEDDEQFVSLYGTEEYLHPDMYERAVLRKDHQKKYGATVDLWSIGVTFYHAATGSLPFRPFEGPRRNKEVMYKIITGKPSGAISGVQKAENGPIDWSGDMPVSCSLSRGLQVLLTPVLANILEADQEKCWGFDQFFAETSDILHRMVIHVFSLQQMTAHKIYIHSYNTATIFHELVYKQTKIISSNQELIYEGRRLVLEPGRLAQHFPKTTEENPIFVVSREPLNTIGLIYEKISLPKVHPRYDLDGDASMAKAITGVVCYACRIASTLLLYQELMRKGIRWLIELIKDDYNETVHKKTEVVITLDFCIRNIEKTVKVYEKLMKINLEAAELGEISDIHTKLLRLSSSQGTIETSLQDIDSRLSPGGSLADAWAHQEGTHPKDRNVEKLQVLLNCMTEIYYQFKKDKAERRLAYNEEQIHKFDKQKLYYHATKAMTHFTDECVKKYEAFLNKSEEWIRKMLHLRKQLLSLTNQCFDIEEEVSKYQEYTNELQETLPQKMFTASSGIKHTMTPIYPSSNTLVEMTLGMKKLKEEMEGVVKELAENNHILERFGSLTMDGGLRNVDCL
Procedure, shortened: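 Substrate and product were separated and quantified by microfluidic mobility-shift read (LabChip). 10 uM staurosporine served as the full-inhibition control, and the reference compound was tested from 1 uM final.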

[2] = molecular target: T2, IKKε (Homo sapiens, UniProt Q14164); assay: IKKε biochemical assay; details: 10 point 1:4 dose response, 30 uM top concentration, 90 min at 25° C., LabChip EZ Reader II; read-out: IKKε_IC50
T2 sequence (Q14164 1-716): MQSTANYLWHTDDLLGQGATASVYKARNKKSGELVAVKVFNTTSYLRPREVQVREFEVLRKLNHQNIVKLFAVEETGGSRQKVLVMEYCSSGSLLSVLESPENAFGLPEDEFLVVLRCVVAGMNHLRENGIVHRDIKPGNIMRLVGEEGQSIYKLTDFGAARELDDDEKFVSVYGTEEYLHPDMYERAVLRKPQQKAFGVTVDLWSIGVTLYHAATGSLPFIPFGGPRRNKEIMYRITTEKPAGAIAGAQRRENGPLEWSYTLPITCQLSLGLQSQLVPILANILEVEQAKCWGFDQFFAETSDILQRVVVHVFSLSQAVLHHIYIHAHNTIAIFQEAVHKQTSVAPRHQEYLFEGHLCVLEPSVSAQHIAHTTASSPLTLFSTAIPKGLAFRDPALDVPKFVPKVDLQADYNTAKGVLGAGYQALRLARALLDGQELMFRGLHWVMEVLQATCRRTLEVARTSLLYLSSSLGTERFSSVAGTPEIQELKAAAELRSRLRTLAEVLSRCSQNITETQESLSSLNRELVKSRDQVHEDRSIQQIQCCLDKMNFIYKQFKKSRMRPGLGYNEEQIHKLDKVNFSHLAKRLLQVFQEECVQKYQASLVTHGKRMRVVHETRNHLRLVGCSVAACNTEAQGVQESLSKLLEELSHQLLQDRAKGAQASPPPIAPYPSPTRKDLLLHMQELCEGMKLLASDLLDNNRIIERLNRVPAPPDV
Procedure, shortened: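 Compounds in 1% DMSO final were incubated with IKKε enzyme and substrate at 25° C. for 90 min, then stopped. Substrate and product peaks were resolved by LabChip EZ Reader II mobility-shift read-out. Staurosporine at 10 uM final served as the full-inhibition control.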

IC50 [1] [nM] | IC50 [2] [nM] | SMILES
< 100 | < 100 | COc1nc(Nc2nccc(-c3ccc(OC4CCN(C(=O)[C@@H](C)O)CC4(F)F)c(C#N)c3)n2)ccc1C(=O)N(C)C (stereo partly drawn) [Example 325, 6-([4-[3-cyano-4-([3,3-difluoro-1-[(2R)-2-hydroxypropanoyl]piperidin-4-yl]oxy)phenyl]pyrimidin-2-yl]amino)-2-methoxy-N,N-dimethylpyridine-3-carboxamide]
< 100 | < 100 | COc1nc(Nc2nccc(-c3ccc(OC4CCN(C(=O)CO)CC4(F)F)c(C#N)c3)n2)ccc1N1CCN(C)CC1 (stereo not drawn) [Example 99, 2-[[3,3-difluoro-1-(2-hydroxyacetyl)piperidin-4-yl]oxy]-5-(2-[[6-methoxy-5-(4-methylpiperazin-1-yl)pyridin-2-yl]amino]pyrimidin-4-yl)benzonitrile]
< 100 | < 100 | N#Cc1cc(-c2ccnc(Nc3cccc(C4CCN(C5COC5)CC4)c3)n2)ccc1OC1CCNCC1(F)F (stereo not drawn) [Example 222, 2-(3,3-Difluoro-piperidin-4-yloxy)-5-{2-[3-(1-oxetan-3-yl-piperidin-4-yl)-phenylamino]-pyrimidin-4-yl}-benzonitrile]
< 100 | < 100 | C[C@@H](O)C(=O)N1CCC(Oc2ccc(-c3ccnc(Nc4cccc(C5CCN(C(CO)CO)CC5)c4)n3)cc2C#N)C(F)(F)C1 (stereo partly drawn) [Example 158, 2-[3,3-Difluoro-1-((R)-2-hydroxy-propionyl)-piperidin-4-yloxy]-5-(2-{3-[1-(2-hydroxy-1-hydroxymethyl-ethyl)-piperidin-4-yl]-phenylamino}-pyrimidin-4-yl)-benzonitrile]
< 100 | < 100 | COc1nc(Nc2ncc(F)c(-c3ccc(O[C@H]4CCN(C(=O)[C@H](C)O)C[C@H]4F)c(C#N)c3)n2)ccc1N1CCN(C2COC2)CC1 [Example 298, 2-({3-fluoro-1-[(2S)-2-hydroxypropanoyl]piperidin-4-yl}oxy)-5-[5-fluoro-2-({6-methoxy-5-[4-(oxetan-3-yl)piperazin-1-yl]pyridin-2-yl}amino)pyrimidin-4-yl]benzonitrile]
< 100 | < 100 | COc1cc(Nc2nccc(-c3ccc(OC4CCN(C(=O)[C@@H](C)O)CC4)c(C#N)c3)n2)cnc1N1CCN(C2COC2)CC1 [Example 321, 2-([1-[(2R)-2-hydroxypropanoyl]piperidin-4-yl]oxy)-5-[2-([5-methoxy-6-[4-(oxetan-3-yl)piperazin-1-yl]pyridin-3-yl]amino)pyrimidin-4-yl]benzonitrile]
< 100 | < 100 | C[C@H](O)C(=O)N1CC[C@@H](Oc2ccc(-c3ccnc(Nc4ccc(N5CCN(C6COC6)CC5)cc4)n3)cc2C#N)C(F)(F)C1 [Example 140, 2-[[(4R)-3,3-difluoro-1-[(2S)-2-hydroxypropanoyl]piperidin-4-yl]oxy]-5-[2-([4-[4-(oxetan-3-yl)piperazin-1-yl]phenyl]amino)pyrimidin-4-yl]benzonitrile]
< 100 | < 100 | COc1nc(Nc2nccc(-c3ccc(O[C@H]4CCN(C(=O)[C@H](C)O)C[C@H]4F)c(C#N)c3)n2)ccc1N1CCN(C2COC2)CC1 [Example 116, 2-[(3R,4S)-3-Fluoro-1-((S)-2-hydroxy-propionyl)-piperidin-4-yloxy]-5-{2-[6-methoxy-5-(4-oxetan-3-yl-piperazin-1-yl)-pyridin-2-ylamino]-pyrimidin-4-yl}-benzonitrile]
< 100 | < 100 | N#Cc1cc(-c2ccnc(Nc3ccc(N4CCN(C5COC5)CC4)cc3)n2)ccc1OC1CNC1 [Example 171, 2-(azetidin-3-yloxy)-5-[2-([4-[4-(oxetan-3-yl)piperazin-1-yl]phenyl]amino)pyrimidin-4-yl]benzonitrile]
